Biological target: Programmed cell death 1 ligand 1 (Homo sapiens, UniProt Q9NZQ7)
Assay: Enzyme-Linked Immunosorbent Assay - ELISA: 96 Well plates were coated with 1 μg/mL of human PD-L1 (obtained from R&D) in PBS overnight at 4° C. The wells were then blocked with 2% BSA in PBS (W/V) with 0.05% TWEEN-20 for 1 hour at 37° C. The plates were washed 3 times with PBS/0.05% TWEEN-20 and the compounds were serial diluted (1:5) in dilution medium and added to the ELISA plates. Human PD-1 and biotin 0.3 μg/mL (ACRO Biosystems) were added and incubated for 1 hour at 37° C. then washed 3 times with PBS/0.05% TWEEN-20. A second block was performed with 2% BSA in PBS (W/V)/0.05% TWEEN-20 for 10 min at 37° C. and was washed 3 times with PBS/0.05% TWEEN-20. Streptavidin-HRP was added for 1 hour at 37° C. then washed 3 times with PBS/0.05% TWEEN-20. TMB substrate was added and reacted for 20 min at 37° C. A stop solution (2 N aqueous H2SO4) was added. The absorbance was read at 450 nm using a micro-plate spectrophotometer.

Chain of Programmed cell death 1 ligand 1 (Q9NZQ7 whole entry): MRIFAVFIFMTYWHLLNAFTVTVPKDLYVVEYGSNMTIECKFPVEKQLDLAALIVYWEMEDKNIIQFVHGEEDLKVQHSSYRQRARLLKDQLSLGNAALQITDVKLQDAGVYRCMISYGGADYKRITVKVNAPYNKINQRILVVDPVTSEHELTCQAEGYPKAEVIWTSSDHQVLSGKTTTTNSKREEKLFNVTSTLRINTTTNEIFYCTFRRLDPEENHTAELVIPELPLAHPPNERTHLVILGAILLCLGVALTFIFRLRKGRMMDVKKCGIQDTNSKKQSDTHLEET

SMILES | IC50 [nM]
Cc1c(COc2cc3c(cc2Cl)CN[C@H](C(=O)O)CCCCNC(=O)c2cc(C#N)cc(c2)CO3)cccc1-c1cccc(OCCCN2CC[C@@H](O)C2)c1C | < 100
Cc1c(COc2cc3c(cc2Cl)CN[C@H](C(=O)O)CCCCCCNC(=O)c2cncc(c2)CO3)cccc1-c1cccc(OCCCN2CCC(O)CC2)c1C | < 100
Cc1c(COc2cc3c(cc2Cl)CN[C@@H](C(=O)O)CCCCNC(=O)c2cncc(c2)CO3)cccc1-c1ccccc1 | < 100
Cc1c(COc2cc3c(cc2Cl)CN[C@H](C(=O)O)CCCCNC(=O)c2cc(C#N)cc(c2)CO3)cccc1-c1cccc(OCCCN2CCC(O)CC2)c1C | < 100
Cc1c(COc2cc3c(cc2Cl)CN[C@H](C(=O)O)CCCCNC(=O)c2cncc(c2)CO3)cccc1-c1cccc(OCCCN2CC[C@@H](O)C2)c1C | < 100
Cc1c(COc2cc3c(cc2Cl)CN[C@H](CO)CCCCNC(=O)c2cncc(c2)CO3)cccc1-c1cccc(OCCCN2CCC(O)CC2)c1C | < 100

— ChEMBL document CHEMBL5727270, “Macrocyclic immunomodulators” (2019)
